In patent US10800789B2, “Antiviral compounds” (Gilead Pharmasset LLC, priority 2012, dated 2020):
Like-named read-outs stand apart in the source and are kept apart here.

Assays:
[1] = system: NS5A chimeric genotype 2a JFH-1 replicon with genotype 2a J6 strain NS5A gene (M31 present); assay: Replicon assay, genotype 2a J6 NS5A chimera; type: cell-based, HCV; conditions: Hepatitis C virus
How it was run: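 Antiviral EC50 was determined in HCV replicon cells (stable RLuc lines for 1a H77, 1b Con1, 2a JFH-1 with NS5A L31; J6 NS5A chimera with M31) treated 72 h with compound. Renilla luciferase was then quantified.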

[2] = system: NS5A chimeric genotype 2a JFH-1 replicon with genotype 2b MD2b-1 strain NS5A gene (M31 present); assay: Replicon assay, genotype 2b NS5A chimera; type: cell-based, HCV; conditions: Hepatitis C virus
How it was run: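 EC50 was fitted by non-linear regression to Renilla luciferase signal after 72 h of exposure to 3-fold serially diluted compound (10 mM DMSO stocks). Controls were DMSO (none) and ITMN-191 above 100×EC50 (full). Chimeric 2a replicons were used either stable or transiently transfected into Huh-Lunet cells.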

[3] = system: stable HCV 2a JFH-1 Rluc replicon cells (L31 present in NS5A); assay: Renilla luciferase HCV replicon reporter assay, genotype 2a JFH-1; type: cell-based; conditions: Hepatitis C virus
How it was run: (§1)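 First, 3-fold serial dilutions of compound went onto replicon cells, DMSO serving as no-inhibition control and ITMN-191 at >100×EC50 as positive control. Next came 72 h incubation, lysis and Renilla luciferase measurement. Finally, EC50 was calculated by non-linear regression; replicons covered genotypes 1a H77, 1b Con1, 2a JFH-1 (L31) and J6-NS5A chimera (M31).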

[4] = system: stable HCV 1b RLuc replicon cells (dicistronic genotype 1b Con1 replicon); assay: Renilla luciferase HCV replicon reporter assay, genotype 1b; type: cell-based; conditions: Hepatitis C virus, 72 h, stable 1b Con1 RLuc replicon cells, 72 hours; read-out: 1b
How it was run: as §1

[5] = system: NS5A chimeric genotype 1b Con1 replicon with genotype 4a ED43 strain NS5A gene; assay: Replicon assay, genotype 4a NS5A chimera; type: cell-based, HCV; conditions: Hepatitis C virus
[6] = system: NS5A chimeric genotype 1b Con1 replicon with genotype 3a S52 strain NS5A gene; assay: Replicon assay, genotype 3a NS5A chimera; type: cell-based, HCV; conditions: Hepatitis C virus
[7] = system: stable HCV 1a RLuc replicon cells (dicistronic genotype 1a H77 replicon); assay: Renilla luciferase HCV replicon reporter assay, genotype 1a; type: cell-based; conditions: Hepatitis C virus, 72 h, stable 1a H77 RLuc replicon cells
How it was run: as §1

[8] = read-out: 2a J6 (t) (nM), genotype 2a J6 NS5A chimeric replicon (M31), transiently transfected (t) into Huh-Lunet cells
[9] = read-out: 2a J6 (t), transiently transfected (t) into Huh-Lunet cells, activity range
[10] = 2BS, read-out: 2b (s), stably replicating replicon cells (s), activity range
[11] = read-out: 2b (s) (nM), genotype 2b MD2b-1 NS5A chimeric replicon (M31), stably replicating replicon cells (s)
[12] = read-out: 2a JFH (nM), genotype 2a JFH-1 replicon (L31 in NS5A), stable cells
[13] = read-out: 2a JFH, stable 2a JFH-1 Rluc replicon cells, L31 in NS5A, activity range
[14] = read-out: 4a (s) (nM), genotype 4a NS5A chimeric replicon, stable replicon cells (s)
[15] = read-out: 4a (s), (s), activity range
[16] = read-out: 3a (s) (nM), genotype 3a NS5A chimeric replicon, stable replicon cells (s)
[17] = read-out: 3a (s), (s), activity range

Row | Structure (SMILES) | EC50 [1, 8] | EC50 [1, 9] | EC50 [2, 10] | EC50 [2, 11] | EC50 [3, 12] | EC50 [3, 13] | EC50 [4] | EC50 [5, 14] | EC50 [5, 15] | EC50 [6, 16] | EC50 [6, 17] | EC50 [7] | EC50 ([7]; activity range)
1 | COC(=O)N[C@H](C(=O)N1CCC[C@H]1c1ncc(-c2ccc3c(c2)COc2cc4c(ccc5nc([C@@H]6CCCN6C(=O)[C@@H](NC(=O)OC)C6CCOCC6)[nH]c54)cc2-3)[nH]1)C1CCOCC1 [HI] | 0.2 nM | 0.1 to 0.999 nM | 0.1 to 0.999 nM | 0.203 nM | 0.041 nM | < 0.1 nM | 0.416 nM | 0.111 nM | 0.1 to 0.999 nM | 0.447 nM | 0.1 to 0.999 nM | 0.203 nM | 0.1 to 0.999 nM
2 | CC[C@H]1C[C@@H](c2nc3ccc4cc5c(cc4c3[nH]2)OCc2cc(-c3cnc([C@@H]4CC[C@H](C)N4C(=O)[C@@H](NC(=O)OC)C(C)C)[nH]3)ccc2-5)N(C(=O)[C@H](C)NC(=O)OC)C1 [HK] | 0.878 nM | 0.1 to 0.999 nM | 1 to 44 nM | 11.5 nM | 0.034 nM | < 0.1 nM | 0.026 nM | 0.02 nM | < 0.1 nM | 0.705 nM | 0.1 to 0.999 nM | 0.017 nM | < 0.1 nM
3 | COC(=O)N[C@@H](C)C(=O)N1[C@@H](C)CC[C@H]1c1ncc(-c2ccc3c(c2)COc2cc4c(ccc5nc([C@@H]6CC[C@H](C)N6C(=O)[C@@H](NC(=O)OC)C(C)C)[nH]c54)cc2-3)[nH]1 [HL] | 1.43 nM | 1 to 44 nM | 1 to 44 nM | 3.72 nM | 0.019 nM | < 0.1 nM | 0.021 nM | 0.02 nM | < 0.1 nM | 0.127 nM | 0.1 to 0.999 nM | 0.017 nM | < 0.1 nM
4 | COC(=O)N[C@H](C(=O)N1C(c2ncc(-c3ccc4c(c3)COc3cc5c(ccc6nc(C7C[C@H](C)CN7C(=O)[C@@H](NC(=O)OC)C(C)(C)C)[nH]c65)cc3-4)[nH]2)CC[C@@H]1C)C(C)C (stereo partly drawn) [HN] | 1.1 nM | 1 to 44 nM | 1 to 44 nM | 2.86 nM | 0.018 nM | < 0.1 nM | 0.012 nM | 0.018 nM | < 0.1 nM | 0.282 nM | 0.1 to 0.999 nM | 0.01 nM | < 0.1 nM
5 | COC(=O)N[C@H](C(=O)N1[C@@H](C)CC[C@H]1c1nc2ccc3cc4c(cc3c2[nH]1)OCc1cc(-c2cnc([C@@H]3[C@@H]5C[C@@H]5CN3C(=O)[C@@H](NC(=O)OC)C3CCOCC3)[nH]2)ccc1-4)C(C)C [HO] | 0.207 nM | 0.1 to 0.999 nM | 0.1 to 0.999 nM | 0.639 nM | 0.022 nM | < 0.1 nM | 0.074 nM | 0.04 nM | < 0.1 nM | 0.136 nM | 0.1 to 0.999 nM | 0.059 nM | < 0.1 nM
6 | COC(=O)N[C@H](C(=O)N1[C@@H](C)CC[C@H]1c1nc2ccc3cc4c(cc3c2[nH]1)OCc1cc(-c2cnc([C@@H]3[C@@H]5C[C@@H]5CN3C(=O)[C@@H](NC(=O)OC)[C@@H](C)OC)[nH]2)ccc1-4)C(C)C [HP] | 0.22 nM | 0.1 to 0.999 nM | 1 to 44 nM | 1.02 nM | 0.014 nM | < 0.1 nM | 0.026 nM | 0.023 nM | < 0.1 nM | 0.079 nM | < 0.1 nM | 0.019 nM | < 0.1 nM
7 | COC(=O)N[C@H](C(=O)N1C[C@H]2C[C@H]2[C@H]1c1ncc(-c2ccc3c(c2)COc2cc4c(ccc5nc([C@@H]6CC[C@H](C)N6C(=O)[C@@H](NC(=O)OC)C(C)C)[nH]c54)cc2-3)[nH]1)C(C)C [HR] | 1.12 nM | 1 to 44 nM | 1 to 44 nM | 2.18 nM | 0.022 nM | < 0.1 nM | 0.024 nM | 0.015 nM | < 0.1 nM | 0.047 nM | < 0.1 nM | 0.015 nM | < 0.1 nM
8 | COC(=O)N[C@H](C(=O)N1C[C@@H](F)C[C@H]1c1ncc(-c2ccc3c(c2)COc2cc4c(ccc5nc([C@@H]6CC[C@H](C)N6C(=O)[C@@H](NC(=O)OC)C(C)C)[nH]c54)cc2-3)[nH]1)C(C)C [HS] | 4.14 nM | 1 to 44 nM | 1 to 44 nM | 3.37 nM | 0.022 nM | < 0.1 nM | 0.023 nM | 0.008 nM | < 0.1 nM | 0.082 nM | < 0.1 nM | 0.011 nM | < 0.1 nM
9 | COC(=O)N[C@H](C(=O)N1[C@@H](C)CC[C@H]1c1nc2ccc3cc4c(cc3c2[nH]1)OCc1cc(-c2cnc([C@@H]3C[C@H](F)CN3C(=O)[C@@H](NC(=O)OC)C3CCOCC3)[nH]2)ccc1-4)C(C)C [HT] | 0.778 nM | 0.1 to 0.999 nM | 1 to 44 nM | 1.35 nM | 0.051 nM | < 0.1 nM | 0.11 nM | 0.03 nM | < 0.1 nM | 0.075 nM | < 0.1 nM | 0.07 nM | < 0.1 nM
10 | COC(=O)N[C@H](C(=O)N1[C@@H](C)CC[C@H]1c1nc2ccc3cc4c(cc3c2[nH]1)OCc1cc(-c2cnc([C@@H]3C[C@H](F)CN3C(=O)[C@@H](NC(=O)OC)[C@@H](C)OC)[nH]2)ccc1-4)C(C)C [HU] | 3.17 nM | 1 to 44 nM | 1 to 44 nM | 3.56 nM | 0.026 nM | < 0.1 nM | 0.055 nM | 0.012 nM | < 0.1 nM | 0.083 nM | < 0.1 nM | 0.016 nM | < 0.1 nM
11 | COC(=O)N[C@H](C(=O)N1[C@@H](C)CC[C@H]1c1ncc(-c2ccc3c(c2)COc2cc4c(ccc5nc([C@@H]6CC[C@H](C)N6C(=O)[C@@H](NC(=O)OC(C)(C)C)C(C)(C)O)[nH]c54)cc2-3)[nH]1)C(C)C [HV] | ≥ 44.4 nM | > 44 nM | > 44 nM | ≥ 44.4 nM | 1.87 nM | 1 to 44 nM | 0.091 nM | 1.27 nM | 1 to 44 nM | 12.6 nM | 1 to 44 nM | 3.65 nM | 1 to 44 nM
12 | COC(=O)N[C@H](C(=O)N1[C@@H](C)CC[C@H]1c1ncc(-c2ccc3c(c2)COc2cc4c(ccc5nc([C@@H]6CC[C@H](C)N6C(=O)[C@@H](NC(=O)OC)[C@H](C)O)[nH]c54)cc2-3)[nH]1)C(C)C [HW] | 1.1 nM | 1 to 44 nM | 1 to 44 nM | 1.79 nM | 0.047 nM | < 0.1 nM | 0.066 nM | 0.021 nM | < 0.1 nM | 0.085 nM | < 0.1 nM | 0.056 nM | < 0.1 nM
13 | COC(=O)N[C@H](C(=O)N1C[C@@H](C)C[C@H]1c1nc2ccc3cc4c(cc3c2[nH]1)OCc1cc(-c2cnc([C@@H]3CC[C@H](C)N3C(=O)[C@@H](NC(=O)OC)C(C)(C)C)[nH]2)ccc1-4)C(C)C [HX] | 3.28 nM | 1 to 44 nM | 1 to 44 nM | 2.92 nM | 0.027 nM | < 0.1 nM | 0.02 nM | 0.014 nM | < 0.1 nM | 0.266 nM | 0.1 to 0.999 nM | 0.011 nM | < 0.1 nM
14 | CC[C@H]1CC[C@@H](c2ncc(-c3ccc4c(c3)COc3cc5c(ccc6nc([C@@H]7C[C@H](C)CN7C(=O)[C@@H](NC(=O)OC)C7CCOCC7)[nH]c65)cc3-4)[nH]2)N1C(=O)[C@@H](NC(=O)OC)C(C)C [HZ] | 0.023 nM | < 0.1 nM | < 0.1 nM | 0.073 nM | 0.014 nM | < 0.1 nM | 0.025 nM | 0.012 nM | < 0.1 nM | 0.14 nM | 0.1 to 0.999 nM | 0.012 nM | < 0.1 nM
15 | COC(=O)N[C@H](C(=O)N1[C@@H](C)CC[C@H]1c1nc2ccc3cc4c(cc3c2[nH]1)OCc1cc(-c2cnc([C@@H]3C[C@@H]5CCC[C@@H]5N3C(=O)[C@@H](NC(=O)OC)C3CCOCC3)[nH]2)ccc1-4)C(C)C [IB] | 0.05 nM | < 0.1 nM | 0.1 to 0.999 nM | 0.129 nM | 0.027 nM | < 0.1 nM | 0.032 nM | 0.026 nM | < 0.1 nM | 0.077 nM | < 0.1 nM | 0.021 nM | < 0.1 nM
